Results published in patent publication EP0423240B1, “MODULATION OF VIRUS-HOST CELL INTERACTIONS USING CYCLIC OLIGOSACCHARIDES” (THE TRUSTEES OF THE UNIVERSITY OF PENNSYLVANIA, priority 1988, dated 1990).

Columns and labels:
HTLV III -B (HIV-1 IIIB) = test: Fusion inhibition (syncytia) assay, Sup-T1 cells with HTLV-III B infected H9 cells; format: cell-based; design: key: 4=Full; 0=None; S=Small; M=Medium; L=Large; conditions: degree and size of syncytia
Experimental: (§1) The fusion inhibition (syncytia) assay was performed according to published procedures (Dalgleish et al., Nature 312:763, (1984) and Sodroski et al., Nature 322: 470, (1986)). Sup-T1 cells are favored target cells for their rapid degree of cell fusion when co-cultured with HIV-1 producing cell lines. Cell culture is performed according to the method of Dalgleish et al. (Nature 312:763, (1984)). Sup-T1 cells are plated in 96 well plates (10⁵ cells/well in RPMI 1640 + 10% FCS) and incubated with or without dilutions of beta-cyclodextrin tetradecasulfate (β-CD-TDS or β-CD-14S) at 37°C. HTLV-III B (HIV-1) or WMJ infected H9 cells are then added 5x10⁴/well and the number of multinucleated giant cells per 16 X field counted with a Zeiss inverted field phase contrast microscope after 18 hours. Syncytia are easily identified and inhibition of syncytia by different dilutions of β-CD-TDS can be compared with to β-CD-TDS free preparations. It will be apparent to those skilled in the art, that the formation of syncytia between cells susceptible of infection by HIV-1 and cells expressing HIV-1 envelope glycoproteins represents the same molecular phenomena involved in infection by HIV-1, but is far less hazardous and may be employed to study the mechanisms of infection and the effects of modulating factors on HIB-1 intracellular infection mechanisms, without fear of exposure to the virus itself.
(§2) For screening of different dilutions, 10-fold dilutions of a 150 micromolar solution of β-CD-TDS were prepared and directly added to syncytia assays as described above.
(§3) For the assay of HIV-1 fusion, Supt T1 cells were used as target cells. They fuse rapidly when cocultured with HIV-1 (H9/IIIb) producing cell lines. For the assay of HIV-2 mediated cell fusion, H9 cells were used as target cells. They fuse rapidly when cocultured with HIV-2 (CEMROD-2) producing cell lines. HIV infected cells were plated in 96 well plates (10⁴ cells/well in RPMI 1640 + 10% FCS) and incubated with or without dilution of compounds for 30 minutes at 37°C. Target cells are then added 5 x 10⁵/well and the number of syncytia are qualitatively determined after the incubation periods described in the text.
(§4) In a series of preliminary experiments, a syncytia assay induced by HIV-1 fusion of Sup-T1 cells was performed as described in Section 6.1.1, supra.

HTLV III WMJ = test: Fusion inhibition (syncytia) assay, Sup-T1 cells with WMJ infected H9 cells; format: cell-based, HIV-1; design: key to Degree of Syncytia Formation: 4=Full; 0=None; S=Small; M=Medium; L=Large; conditions: for Degree of Syncytia Formation: degree and size of syncytia
Experimental: as §1, §2, §3, §4

HIV-1 [1] = test: Reverse transcriptase levels of cells already infected with HIV-1; format: cell-based; conditions: reverse transcriptase activity, virus particle production, virus particle morphology
Experimental: Virus infected cells were pelleted by centrifugation and 50 µl of culture suprenatant was collected from each well for assay. Culture supernatant (25 µl) was plated in 96 well round bottomed plates and 50 µl of transcriptase cocktail was added to each well. Cocktail is 50 mM Tris-HC1, pH 8.0, 20 mM DTT, 0.6 mM MnC1₂, 60 mM NaC1, 0.05% NP-40, 5 µg/ml dt (oligodeoxythymidilic acid), 10 µg/ml poly A (polyriboadenylic acid), 10 µM dTTP, 1 Ci/mm ³²P dTTP. Plates were then incubated for 60 minutes at 37°C. After incubation samples were spotted onto Whatman DEAE-81 paper, washed and analyzed by counting or direct autoradiography.
In order to determine the specific sites of viral pathogenesis interrupted by the cyclodextrin compounds, we assayed the ability of the cyclodextrins treatment to effect reverse transcriptase levels of cells already infected with HIV-1. In contrast to the results observed when virus was added to uninfected cells, (see supra, Section 6.2.1.) no significant inhibition of reverse transcriptase was observed.

HIV-1 [2] = test: Structural studies: electron microscopy of virus particle production by infected cells; format: cell-based
Experimental: Virus infected cells were washed and resuspended in fresh media in the presence or absence of test compounds. After a 48 hour culture period the cultures were pelleted and fixed in 1% glutaraldehyde, 0.1 M Cacodylate-HC1, pH 7.3 followed by OsO₄, and embedded in spur resin for examination of these sections by electron microscopy.
To further address this point, we analyzed virus particle production in the presence of specifically substituted cyclodextrins by electron microscopic examination. Virus infected cells were washed and resuspended in fresh media in the presence or absence of test compounds. After a 48 hour culture period, the cultures were pelleted and fixed in 1% glutaraldehyde, 0.1 M Cacodylate-HC1, pH 7.3 followed by OsO₄ and embedded in spur resin for examination of thin sections.

HIV = test: Reverse transcriptase assay after prolonged culture (6 days with compound, further 10 days in fresh media); format: cell-based; conditions: then 10 days in fresh media
Experimental: Figure 6 compares the effects of dextran polysulfate and substituted β-cyclodextrins on HIV infectivity. In (A) degree of syncytia inhibition is shown on the ordinate for each compound added. SUL = 600 µM β-CD-14S, AL = 600 µM unsubstituted β-CD, Pro = 600 µM propoxylated β-CD, 2MET = 300 µM methoxylated β-CD, DS5 = 600 µM dextran sulfate 5,000, DS500 = 600 µM dextran sulfate 500,000. Results for each of 3 time points are shown. In (B) similar results utilizing reverse transcriptase assays are shown. Infectious virus particles were incubated in the presence of sulfated β-cyclodextrin (lane 1), dextran sulfate 5000 (lane 2) or media (lane 3) for 6 days at which time cells were resuspended in fresh media and allowed to incubate a further 10 days before being harvested. Reverse transcriptase activity was assayed as described in Section 6.1, infra. 1/2 dilutions of the compound added are shown from bottom (highest concentration at 2.5 mM) to top (lowest concentration).
Virus infected cells were pelleted by centrifugation and 50 µl of culture suprenatant was collected from each well for assay. Culture supernatant (25 µl) was plated in 96 well round bottomed plates and 50 µl of transcriptase cocktail was added to each well. […] After incubation samples were spotted onto Whatman DEAE-81 paper, washed and analyzed by counting or direct autoradiography. […]

HIV-1 [3] = test: HIV-1 induced syncytia assay, IIIb infected H9 cells cocultured with Supt-1 target cells; format: cell-based; design: key to number of syncytia formed: 4 being multiple syncytia widely distributed; 0 indicating no syncytia observed; s=small; m=medium; L=large syncytia; conditions: for number of syncytia formed: HIV-1, number and size of syncytia
Experimental: as §3
In a series of additional experiments, analysis of HIV-1 induced syncytia was performed by coculturing H9 cells infected with the IIIb isolate with uninfected Supt-1 (a human CD4+ T cell line) cells as targets. […]

beta-cyclodextrin tetradecasulfate [Beta-CD-14S]
Degree of Syncytia Formation (HTLV III -B (HIV-1 IIIB); 0.15 micromolar β-CD-TDS): 4 L
Degree of Syncytia Formation (HTLV III -B (HIV-1 IIIB); 1.50 micromolar β-CD-TDS): 4 L
Degree of Syncytia Formation (HTLV III -B (HIV-1 IIIB); 15.0 micromolar β-CD-TDS): 4 L
Degree of Syncytia Formation (HTLV III -B (HIV-1 IIIB); 150 micromolar β-CD-TDS): 2 M
Degree of Syncytia Formation (HTLV III -B (HIV-1 IIIB); 1500 micromolar β-CD-TDS): 0
Degree of Syncytia Formation (HTLV III WMJ; 0.15 micromolar β-CD-TDS): 4 L
inhibition of syncytia formation (HTLV III WMJ; 0.15 micromolar, text summary of Table 1 (both strains)): no inhibition of syncytia formation was observed
Degree of Syncytia Formation (HTLV III WMJ; 1.50 micromolar β-CD-TDS): 3 M
Degree of Syncytia Formation (HTLV III WMJ; 15.0 micromolar β-CD-TDS): 1S
Degree of Syncytia Formation (HTLV III WMJ; 150 micromolar β-CD-TDS): 0
Degree of Syncytia Formation (HTLV III WMJ; 1500 micromolar β-CD-TDS): 0
inhibition of syncytia (HTLV III WMJ; between 1.5 micromolar and 1500 micromolar, text summary of Table 1 (both strains)): inhibition of syncytia was observed
effects on cells that have already been infected with HIV-1 (HIV-1 [1]): no detectable effects
morphology of viral particles produced (HIV-1 [2]; 300 µM, 48 hour culture): typical of the lentivirus family
morphology of the viral particles produced (HIV-1 [2]; infected H9 cells, 1 mM): mature morphology
anti-viral activity (reverse transcriptase activity) (HIV): significant anti-viral activity even after prolonged periods of tissue culture
number of syncytia formed (HIV-1 [3]; 1.3 mM): 0
number of syncytia formed (HIV-1 [3]; 2.5 mM): 0
number of syncytia formed (HIV-1 [3]; .01 mM): 4 L
number of syncytia formed (HIV-1 [3]; .02 mM): 4 L
number of syncytia formed (HIV-1 [3]; .04 mM): 3 L
number of syncytia formed (HIV-1 [3]; .08 mM): 2m
number of syncytia formed (HIV-1 [3]; .16 mM): 1 s
number of syncytia formed (HIV-1 [3]; .32 mM): 0
number of syncytia formed (HIV-1 [3]; .63 mM): 0
inhibiting syncytia formation of HIV-1 (HIV-1 [3]; result in words): extremely high antisyncytia activity
